Experimental findings from patent US20070111989A1, “Novel diazabicyclononene derivatives and use” (priority 2004, published 2007) are described below.

This assay has as its target T1, human recombinant renin (Homo sapiens, UniProt P00797).
T1 sequence (P00797 67-406): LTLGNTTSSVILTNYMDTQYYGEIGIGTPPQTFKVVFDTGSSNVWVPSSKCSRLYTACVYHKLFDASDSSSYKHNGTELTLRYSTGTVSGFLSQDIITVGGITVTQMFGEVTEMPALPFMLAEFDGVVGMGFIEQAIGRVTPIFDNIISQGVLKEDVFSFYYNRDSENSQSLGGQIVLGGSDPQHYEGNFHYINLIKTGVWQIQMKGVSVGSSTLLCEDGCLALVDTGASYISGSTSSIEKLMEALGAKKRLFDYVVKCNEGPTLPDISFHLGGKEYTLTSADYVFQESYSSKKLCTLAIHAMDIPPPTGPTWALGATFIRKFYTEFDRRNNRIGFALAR
The assay can be described thus: Inhibition of human recombinant renin, enzymatic in vitro assay with Ang I EIA detection. The note with it: human recombinant renin 0.16 ng/mL, synthetic human angiotensin(1-14) 0.5 μM, 37° C. for 3 h; read-out: IC50 (concentration that inhibited the enzyme activity by 50%). In kind it is biochemical. As for the experimental part: Inhibition of Human Recombinant Renin by the Compounds of the Invention The enzymatic in vitro assay was performed in 384-well polypropylene plates (Nunc). The assay buffer consisted of 10 mM PBS (Gibco BRL) including 1 mM EDTA and 0.1% BSA. The incubates were composed of 50 μL per well of an enzyme mix and 2.5 μL of renin inhibitors in DMSO. The enzyme mix was premixed at 4° C. and consists of the following components: • human recombinant renin (0.16 ng/mL) • synthetic human angiotensin(1-14) (0.5 μM) • hydroxyquinoline sulfate (1 mM) The mixtures were then incubated at 37° C. for 3 h. To determine the enzymatic activity and its inhibition, the accumulated Ang I was detected by an enzyme immunoassay (EIA) in 384-well plates (Nunc). 5 μL of the incubates or standards were transferred to immuno plates which were previously coated with a covalent complex of Ang I and bovine serum albumin (Ang 1-BSA). 75 μL of Ang I-antibodies in essaybuffer above including 0.01% Tween 20 were added and a primary incubation made at 4° C. overnight. The plates were washed 3 times with PBS including 0.01% Tween 20, and then incubated for 2 h at rt with an antirabbit-peroxidase coupled antibody (WA 934, Amersham).

SMILES strings stand for the structures.

Turning to `COCCOc1nccc(CN(C(=O)C2=C(c3ccc(CCCOc4c(F)ccc(F)c4Cl)cc3)C[C@@H]3CNC[C@H]2N3)C2CC2)c1C` (racemic) [Example 1, (rac.)-(1R*,5S*)-7-{4-[3-(2-Chloro-3,6-difluorophenoxy)propyl]phenyl}-3,9-diazabicyclo[3.3.1]non-6-ene-6-carboxylic acid cyclopropyl-[2-(2-methoxy-ethoxy)-3-methylpyridin-4-ylmethyl]amide], the IC50 is 1 nM.

Take `COCCOc1cccc(CN(C(=O)C2=C(c3ccc(CCCOc4c(F)ccc(F)c4Cl)cc3)CC3CNCC2N3)C2CC2)c1C` (racemic) [Example 2, (rac.)-(1R*,5S*)-7-{(4-[3-(2-Chloro-3,6-difluorophenoxy)propyl]phenyl}-3,9-diazabicyclo[3.3.1]non-6-ene-6-carboxylic acid cyclopropyl-[3-(2-methoxy-ethoxy)-2-methylbenzyl]amide]: the IC50 is 1.05 nM.
